Measured values as given in patent publication US20030232747A1, “Method of identifying a pharmaceutically active compound for the treatment of a condition caused by altered expression of the insulin receptor” (priority 2002, published 2003).

Experiments:
[1] = Organ weights after castration and testosterone replacement in young rats; assay type: in vivo, rat
Procedure: Pellets for testosterone-or placebo-implantation were received from Innovative Research of America, Sarasota, Fla., USA. To evaluate the effects of castration and testosterone replacement male wistar rats (3 months, n=21) were divided into three groups: Group 1, intact (shame operated, given a placebo-pellet by implantation under the dorsal skin, n=7), group 2, castrated (implantation of placebo-pellet, n=7) and group 3, castrated, but given a testosterone-implantate of 15 mg (n=7). 3 weeks after treatment rats were killed and penile tissue as well as blood samples were treated as described in example 1. The experimental study was conducted in accordance with the general federal law on the care and use of laboratory animals.
It was noted that the level of testosterone in the serum of young versus old rats were 4.436±1.1 and 0.57±0.17 ng/ml (mean±SD, n=4) respectively, pointing to a drop in the level of testosterone in circulation of aged animals. This is in agreement with Zirkins lab (Zirkin et al., Exp. Gerontol. 32:529-537 (1997); Zirkin and Chen, Biol. Reprod. 63:977-981 (2000)). In order to discern if the observed ageing related alteration in the expression of two splice variants of insulin receptor mRNA could be due to a declining androgen level in the ageing rats, we have performed orchiedectomy on young rats. One group of castrated rats received androgen releasing subcutanous implant. […] The effect of castration and andorgen-replacement of the insulin receptor mRNA expression in penile tissue of young rats is presented in FIG. 4a. […] Following castration, the appearance of the smaller splice variant was observed, the pattern resembling the old animals.

[2] = system: insulin receptor mRNA splice variants Ex11+/Ex11-; assay: RT-PCR and densitometric analysis of insulin receptor mRNA splice variants in penile tissue after castration and testosterone replacement; assay type: in vivo, rat
Procedure: Tissue samples (100-200 mg) were pulverized in liquid nitrogen. Total RNA was isolated using guanidium thocyanate, phenol-chloroform extraction (pecLab, Erlangen, Germany). The RNA was precipitated with isopropanol at −20° C. for 2 h, washed with 75% ethanol, dissolved in diethylpyrocarbonate water and quantified spectrometrically at 260 nm. The ratio of absorption of all preparations was between 1.8 and 2.0. To ensure that concentration was identical in each sample, the intensity of 28 sRNA was compared on an 1% agarose gelectrophoresis after ethidium bromide staining. Total RNA was stored at −80° C. until further use.
First strand cDNA synthesis was carried out using a commercially available kit (Gibco BRL). Briefly, 4 μg of total RNA was primed with 0,5 μg of oligo(dT)12-18 and incubated 10 min at 70° C. For each sample lx first strand puffer, 0,2M DTT, 10 mM dNTP's and 200U of Superscript II reverse transcriptase were added. Reverse transcription was performed at 42° C. for 50 min and stopped by heating for 15 min. at 70° C. The resulting cDNA templates were stored at −20° C. or directly used for PCR.
After a denaturation period of 3 min the PCR reaction was followed by 35 cycles of 95° C. for 60 sec., 60° C. for 60 sec. and 72° C. for 60 sec. PCR was performed with 6 μl cDNA, 10 mM of each dNTP, 5U Taq-Polymerase (Biotherm) and 50 pmol of both sense and antisense primers in PCR buffer. The final volume of each reaction was 50 μl. Reaction products (15 μl) were run on a 2.5% agarose gel. Primers used for PCR were: […]
Densitometric analysis of the insulin receptor mRNA splice variant levels was performed using the Image Quant 5.0 software.
For the proportion of the two insulin receptor variant mRNA levels, significance of the difference of the mean values was determined by unpaired student's t-test. The threshold for signigicance was set at p<0.05.
Pellets for testosterone-or placebo-implantation were received from Innovative Research of America, Sarasota, Fla., USA. […]

[3] = young (3 months) castrated male wistar rats, testosterone implant 15 mg, 3 weeks after treatment, n=7
[4] = young castrated rats with androgen supplementation (testosterone implant 15 mg), 3 weeks, FIG. 4b

With C[C@]12CC[C@H]3[C@@H](CCC4=CC(=O)CC[C@@]43C)[C@@H]1CC[C@@H]2O [testosterone] the “Penis weight in relation to body weight” value [1, 3] was 78.55 ± 5.54 mg/100 g body weight, the “Prostate weight in relation to body weight” value [1, 3] was 92.37 ± 33.89 mg/100 g body weight and the “Effect on castration-induced reduction of penis and prostate weight (in words)” value ([1]; young castrated rats, testosterone replacement) was “induced a reversal of this effect in both organs”. The “Relative proportion of Ex11+ insulin receptor mRNA in penis” value [2, 4] was 22.8%, the “Relative proportion of Ex11- insulin receptor mRNA in penis” value [2, 4] was 77.2% and the “Appearance of the smaller insulin receptor splice variant (Ex11-) in penile tissue (in words)” value ([2]; young castrated rats with androgen supplementation, FIG. 4a) was “this isoform persisted”.
